From paper PMC11326381, “Structural Study of Selectivity Mechanisms for JNK3 and p38α with Indazole Scaffold Probing Compounds” (Research Square, 2024)
pIC50: −log10 of the molar value.

Legend:
[1] = test system: JNK1; settings: cited from earlier work
[2] = target: JNK3 (Homo sapiens, UniProt P53779); assay: HTRF enzyme inhibition assay, JNK3; format: biochemical
Procedure: Homogeneous Time-resolved Fluorescence Assay (HTRF)
Enzyme inhibition assays to determine IC50 values for the kinases were performed as described previously.

Chain of JNK3 (P53779 whole entry): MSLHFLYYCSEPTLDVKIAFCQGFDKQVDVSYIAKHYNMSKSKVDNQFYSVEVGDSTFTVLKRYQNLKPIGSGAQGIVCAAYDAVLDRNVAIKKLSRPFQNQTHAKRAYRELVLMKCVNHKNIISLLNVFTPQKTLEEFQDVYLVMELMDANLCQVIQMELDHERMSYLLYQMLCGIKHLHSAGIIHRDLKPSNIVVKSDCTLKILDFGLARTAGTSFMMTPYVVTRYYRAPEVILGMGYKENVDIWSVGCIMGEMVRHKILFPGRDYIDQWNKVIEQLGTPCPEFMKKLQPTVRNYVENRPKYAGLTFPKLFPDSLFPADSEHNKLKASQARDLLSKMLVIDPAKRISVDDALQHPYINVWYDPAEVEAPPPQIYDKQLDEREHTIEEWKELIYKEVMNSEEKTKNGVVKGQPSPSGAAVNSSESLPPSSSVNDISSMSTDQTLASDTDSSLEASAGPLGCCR

pIC50 [2]	SMILES	affinity for JNK1 [1]
6.00	COc1ccccc1Nc1cc2cnn(-c3cc(C(=O)NC4COC4)sc3C)c2cc1F [Compound 23GA]	–
7.85	COc1ccccc1Nc1cc2cnn(-c3csc(C(=O)NC4COC4)c3)c2cc1F [Compound 23M]	–

The next lines start with the molecule.

SMILES	pIC50 [2]	affinity for JNK1 [1]
Cc1ccc(-n2nc(C(C)(C)C)cc2NC(=O)Nc2ccc(OCCN3CCOCC3)c3ccccc23)cc1 [BIRB796]	–	no affinity
CNC(=O)c1cc(-n2ncc3cc(Nc4c(F)cccc4Cl)c(CN4CCC4)cc32)cs1 [Compound 21G]	6.86	–
CNC(=O)c1cc(-n2ncc3cc(Nc4c(F)cccc4Cl)c(COC)cc32)cs1 [Compound 21J]	8.22	–
